≈ marks a conversion by molar mass, not a printed value.
How the values were obtained:
M. tuberculosis H37Rv = experiment: series culture (dilution) method, MIC, M. tuberculosis H37Rv; type: cell-based; conditions: Mycobacterium tuberculosis, 72 hour cultivation, 37° C., Soton medium with 10% horse serum
Procedure: In order to determine antimicrobial activity standard strains Mycobacterium smegmatis ATCC607 and Mycobacterium tuberculosis H37RV were used which are sensitive to all antimicrobial compounds.
The evaluation of antimicrobial action was performed with the method of series culture (5). M. smegmatis ATCC607 for seeding was grown on liquid synthetic medium N-1.
The compounds were dissolved in dimethyl sulfoxide (DMSO) and tittered in medium N-1, so that this compound was contained in separate test tubes with the medium in concentration of 200-0.025 mg/l. The concentration of the compound in the medium of neighboring test tubes was differed twice. For the control, DMSO which was tittered the same as the compound, was utilized. Test strain of bacteria was added in the quantity 1-2×10^6 ml. The result was considered after 72 hour cultivation of test tubes at 37° C.
For M tuberculosis H37Rv conditions of experiment were identical, with the exception of the fact that bacteria were grown on the Soton medium which contains 10% horse serum, and density of microbial suspension during seeding was (5.0×10^6) in ml.
As the control, in both cases known tuberculostatic compounds were utilized.

M. smegmatis ATCC607 = experiment: series culture (dilution) method, MIC, M. smegmatis ATCC607; type: cell-based, Mycobacterium smegmatis; conditions: Mycolicibacterium smegmatis, 72 hour cultivation, 37° C., medium N-1
M. bovis bovinus 8 = type: in vivo, M. bovis bovinus 8; no-breed male mice; conditions: for Coefficient of lung mass / Index of damage lungs / Perished animals: 42 day after infection; for Coefficient of lung mass / Index of damage lungs / Seeding M.tub.: dose not given; for Perished animals: tested compounds orally (10, 20 and 30 mg/kg), streptomycin intramuscularly; for Seeding M.tub.: from spleen, CFU per 100 mg
in vivo = conditions: mouse
[1] = test system: primary culture of human lymphocytes; experiment: interferon-inducing activity in primary culture of human lymphocytes (immuno-ferment assay); type: cell-based; conditions: 24 hours of incubation
C. trachomatis D323 = experiment: action on Chlamydia trachomatis in cell culture (McCoy and L929); type: cell-based; conditions: 48 hours
[2] = test system: herpes virus I of the type (VPG-1/Leningrad/248/88); experiment: antiviral action on herpes virus in Vero cells (cytopathogenic action); type: cell-based; conditions: 36 hours, 38° C.
Vero = experiment: control of compounds (toxicity) on Vero cell culture; type: cell-based
M. avium 84 = experiment: action on pathogenic mycobacteria from patients, Lowenstein-Jensen medium, M. avium 84; type: cell-based, Mycobacterium avium; conditions: title: concentration of compound 10.0 g/l; 30 days

For `COc1ccc2oc3nc4n(c(=O)c3c(=O)c2c1)CCCS4` [R1=H, R2=OCH3, 3-methoxy-5-oxo-5H-[1]-benzopyrano-[5,6-b]-4-oxo-4H-[1, 2]-pyrimido-1,4,5,6-tetrahydro-1,3-thiazine], which MIC (M. tuberculosis H37Rv) is on record?
Its MIC is 50 µg/mL (≈ 158 µM).

What about the MIC (M. smegmatis ATCC607) of the same compound?
Its MIC is 100 µg/mL (≈ 316 µM).

For `O=c1c2cc([N+](=O)[O-])cc(Br)c2oc2nc3n(c(=O)c12)CCCS3` [R1=Br, R2-NO2, 1-bromo-3-nitro-5-oxo-5H-[1]-benzopyrano-[5,6-b]-4-oxo-4H-[1,2]-pyrimido-1,4,5,6-tetrahydro-1,3-thiazine], which MIC (M. tuberculosis H37Rv) is on record?
The MIC was 25 µg/mL (≈ 60.9 µM).

And the MIC (M. smegmatis ATCC607)?
The MIC was 100 µg/mL (≈ 244 µM).

Which MIC (M. tuberculosis H37Rv) does the source give for `O=c1c2cc(Cl)cc(Cl)c2oc2nc3n(c(=O)c12)CCCS3` [R1=R2=Cl, 1,3-dichloro-5-oxo-5H-[1]-benzopyrano-[5,6-b]-4-oxo-4H-[1,2]-pyrimido-1,4,5,6-tetrahydro-1,3-thiazine] here?
The MIC was 0.3 µg/mL (≈ 0.845 µM).

What about the MIC (M. smegmatis ATCC607) of the same compound?
Its MIC is 1 µg/mL (≈ 2.82 µM).

And the “Coefficient of lung mass” value (M. bovis bovinus 8)?
Its value is 2.42 con. units.

And the “Index of damage lungs” value (M. bovis bovinus 8)?
The value was 2.5 con. unit.

And the Perished animals (M. bovis bovinus 8)?
Its Perished animals is 0%.

What about the “Seeding M.tub.” value (M. bovis bovinus 8) of the same compound?
Its value is 195 CFU.

What about the LD50 at 336 h (in vivo) of the same compound?
The LD50 at 336 h was > 1500 mg/kg.

Which MIC (M. tuberculosis H37Rv) does the source give for `O=c1c2cc(O)ccc2oc2nc3n(c(=O)c12)CCCS3` [R1=H, R2=OH, 3-hydroxy-5-oxo-5H-[1]-benzopyrano-[5,6-b]-4-oxo-4H-[1,2]-pyrimido-1,4,5,6-tetrahydro-1,3-thiazine] here?
Its MIC is 50 µg/mL (≈ 165 µM).

What about the MIC (M. smegmatis ATCC607) of the same compound?
The MIC was 100 µg/mL (≈ 331 µM).

For `O=c1c2cc(Br)ccc2oc2nc3n(c(=O)c12)CCCS3` [R1=H, R2=Br, 3-bromo-5-oxo-5H-[1]-benzopyrano-[5,6-b]-4-oxo-4H-[1,2]-pyrimido-1,4,5,6-tetrahydro-1,3-thiazine], which MIC (M. tuberculosis H37Rv) is on record?
The MIC was 25 µg/mL (≈ 68.5 µM).

And the MIC (M. smegmatis ATCC607)?
The MIC was 50 µg/mL (≈ 137 µM).

What about the “Content of IFN in induction mixture” value ([1]; 1 μg/ml) of the same compound?
The value was 14 ± 0.5 ME/3*10^4 limph./ml.

And the “Content of IFN in induction mixture” value ([1]; 10 μg/ml)?
The value was 84 ± 2.5 ME/3*10^4 limph./ml.

And the “Content of IFN in induction mixture” value ([1]; 100 μg/ml)?
The value was 192 ± 1.6 ME/3*10^4 limph./ml.

And the “Number of unchanged cells” value (C. trachomatis D323; 100 mg/l)?
The value was 7.000.

For `CC[C@@H](CO)NCCN[C@@H](CC)CO` [Ethambutol, reference compound], which MIC (M. tuberculosis H37Rv) is on record?
The MIC was 5 µg/mL (≈ 24.5 µM).

And the MIC (M. smegmatis ATCC607)?
The MIC was 5 µg/mL (≈ 24.5 µM).

With `O=c1c2cc([N+](=O)[O-])ccc2oc2nc3n(c(=O)c12)CCCS3` [R1=H, R2=NO2, 3-nitro-5-oxo-5H-[1]-benzopyrano-[5,6-b]-4-oxo-4H-[1,2]-pyrimido-1,4,5,6-tetrahydro-1,3-thiazine] as the compound, how does the MIC (M. tuberculosis H37Rv) read?
The MIC was 50 µg/mL (≈ 151 µM).

And the MIC (M. smegmatis ATCC607)?
Its MIC is 100 µg/mL (≈ 302 µM).

What about the “number of unchanged cells in 100 fields” value ([2]; 10 mg/l) of the same compound?
Its value is 6000.

What about the “toxicity of compounds to cells” value (Vero; 50 mg/l) of the same compound?
The value was “toxic”.

And the “toxicity of compounds to cells” value (Vero; 100 mg/l)?
The value was “toxic”.

What about the “Content of IFN in induction mixture” value ([1]; 1 μg/ml) of the same compound?
The value was 4.2 ± 0.8 ME/3*10^4 limph./ml.

What about the “Content of IFN in induction mixture” value ([1]; 10 μg/ml) of the same compound?
The value was 20 ± 1.2 ME/3*10^4 limph./ml.

What about the “Content of IFN in induction mixture” value ([1]; 100 μg/ml) of the same compound?
The value was 48 ± 1.2 ME/3*10^4 limph./ml.

For `O=c1c2cc(Br)cc(Br)c2oc2nc3n(c(=O)c12)CCCS3` [R1=R2=Br, 1,3-dibromo-5-oxo-5H-[1]-benzopyrano-[5,6-b]-4-oxo-4H-[1,2]-pyrimido-1,4,5,6-tetrahydro-1,3-thiazine], which MIC (M. tuberculosis H37Rv) is on record?
The MIC was 0.1 µg/mL (≈ 0.225 µM).

And the MIC (M. smegmatis ATCC607)?
The MIC was 0.1 µg/mL (≈ 0.225 µM).

And the “Coefficient of lung mass” value (M. bovis bovinus 8)?
The value was 2.30 con. units.

And the “Index of damage lungs” value (M. bovis bovinus 8)?
Its value is 2.3 con. unit.

And the Perished animals (M. bovis bovinus 8)?
Its Perished animals is 0%.

What about the “Seeding M.tub.” value (M. bovis bovinus 8) of the same compound?
Its value is 180 CFU.

And the “Content of IFN in induction mixture” value ([1]; 1 μg/ml)?
Its value is 4.0 ± 0.5 ME/3*10^4 limph./ml.

What about the “Content of IFN in induction mixture” value ([1]; 10 μg/ml) of the same compound?
Its value is 23 ± 1.0 ME/3*10^4 limph./ml.

And the “Content of IFN in induction mixture” value ([1]; 100 μg/ml)?
The value was 47 ± 0.8 ME/3*10^4 limph./ml.

What about the LD50 at 336 h (in vivo) of the same compound?
The LD50 at 336 h was > 1500 mg/kg.

For `CC1COc2c(N3CCN(C)CC3)c(F)cc3c(=O)c(C(=O)O)cn1c23` (centres unmarked) [Ofloxacin, reference compound], which MIC (M. tuberculosis H37Rv) is on record?
The MIC was 0.5 µg/mL (≈ 1.38 µM).

What about the MIC (M. smegmatis ATCC607) of the same compound?
The MIC was 0.5 µg/mL (≈ 1.38 µM).

With `[H]/N=C(/N)N[C@H]1[C@H](O)[C@@H](O)[C@H](O[C@@H]2O[C@@H](C)[C@](O)(C=O)[C@H]2O[C@@H]2O[C@@H](CO)[C@H](O)[C@@H](O)[C@@H]2NC)[C@@H](N/C(N)=N\[H])[C@@H]1O` [Streptomycin, reference compound] as the compound, how does the MIC (M. tuberculosis H37Rv) read?
The MIC was 0.2 µg/mL (≈ 0.344 µM).

And the MIC (M. smegmatis ATCC607)?
The MIC was 0.15 µg/mL (≈ 0.258 µM).

What about the “antimicrobial action, M. avium 84” value (M. avium 84) of the same compound?
Its value is “growth”.

And the “Coefficient of lung mass” value (M. bovis bovinus 8)?
Its value is 2.47 con. units.

And the “Index of damage lungs” value (M. bovis bovinus 8)?
Its value is 2.45 con. unit.

And the Perished animals (M. bovis bovinus 8)?
Its Perished animals is 0%.

And the “Seeding M.tub.” value (M. bovis bovinus 8)?
The value was 200 CFU.

With `O=c1c2cc(Cl)ccc2oc2nc3n(c(=O)c12)CCCS3` [R1=H, R2=Cl, 3-chloro-5-oxo-5H-[1]-benzopyrano-[5,6-b]-4-oxo-4H-[1,2]-pyrimido-1,4,5,6-tetrahydro-1,3-thiazine] as the compound, how does the MIC (M. tuberculosis H37Rv) read?
The MIC was 10 µg/mL (≈ 31.2 µM).

What about the MIC (M. smegmatis ATCC607) of the same compound?
Its MIC is 10 µg/mL (≈ 31.2 µM).

What does the source list for `O=c1c2cc([N+](=O)[O-])cc(Cl)c2oc2nc3n(c(=O)c12)CCCS3` [R1=Cl, R2=NO2, 1-chloro-3-nitro-5-oxo-5H-[1]-benzopyrano-[5,6-b]-4-oxo-4H-[1,2]-pyrimido-1,4,5,6-tetrahydro-1,3-thiazine]?
MIC (M. tuberculosis H37Rv): 50 µg/mL (≈ 137 µM); MIC (M. smegmatis ATCC607): 100 µg/mL (≈ 273 µM); Content of IFN in induction mixture ([1]; 1 μg/ml): 3.6 ± 0.5 ME/3*10^4 limph./ml; Content of IFN in induction mixture ([1]; 10 μg/ml): 18 ± 1.6 ME/3*10^4 limph./ml

Which results are given for `CO[C@H]1/C=C/O[C@@]2(C)Oc3c(C)c(O)c4c(O)c(cc(O)c4c3C2=O)NC(=O)/C(C)=C\C=C\[C@H](C)[C@H](O)[C@@H](C)[C@@H](O)[C@@H](C)[C@H](OC(C)=O)[C@@H]1C` [Rifamycin, reference compound]?
MIC (M. tuberculosis H37Rv): 0.05 µg/mL (≈ 0.0717 µM); MIC (M. smegmatis ATCC607): 0.25 µg/mL (≈ 0.358 µM); antimicrobial action, M. avium 84 (M. avium 84): growth

Which “number of unchanged cells in 100 fields” value ([2]; 10 mg/l) does the source give for `Nc1nc2c(ncn2COCCO)c(=O)[nH]1` [Acyclovir, reference compound] here?
Its value is 8000.

For `O=c1c2ccccc2oc2nc3n(c(=O)c12)CCCS3` [R1=R2=H, 5-oxo-5H-[1]-benzopyrano-[5,6-b]-4-oxo-4H-[1,2]-pyrimido-1,4,5,6-tetrahydro-1,3-thiazine], which MIC (M. tuberculosis H37Rv) is on record?
Its MIC is 0.6 µg/mL (≈ 2.1 µM).

And the MIC (M. smegmatis ATCC607)?
Its MIC is 0.3 µg/mL (≈ 1.05 µM).

What about the “number of unchanged cells in 100 fields” value ([2]; 10 mg/l) of the same compound?
Its value is 3000.

What about the “number of unchanged cells in 100 fields” value ([2]; 50 mg/l) of the same compound?
The value was 6000.

What about the “toxicity of compounds to cells” value (Vero; 100 mg/l) of the same compound?
Its value is “toxic”.

What about the “Number of unchanged cells” value (C. trachomatis D323; 10 mg/l) of the same compound?
The value was 7.200.

And the LD50 at 336 h (in vivo)?
Its LD50 at 336 h is > 1500 mg/kg.

What does the source list for `NNC(=O)c1ccncc1` [Isoniazid, hydrazide of izonicotinic acid, reference compound]?
MIC (M. tuberculosis H37Rv): 0.1 µg/mL (≈ 0.729 µM); MIC (M. smegmatis ATCC607): 1.5 µg/mL (≈ 10.9 µM); antimicrobial action, M. avium 84 (M. avium 84): growth

From US6071905A, “Biologically active substance on the basis of tetracyclic nitrogen heterocycles of pyrimidine row” (Natural Drug Sciences, LLC, priority 1998, dated 2000)
